Reference: US10407382B2, “EP4 agonists as therapeutic compounds” (ALLERGAN, INC., priority 2014, dated 2019)

Key:
EP4 [1] = molecular target: T1, EP4 (Homo sapiens, UniProt P35408); assay: cAMP assay, EP4; format: cell-based; set-up: expressed in transfected cells; host or cells: HEK-EBNA cells; conditions: HEK-EBNA cells expressing EP4
Experimental: A 384-well drug plate was prepared to contain 6 test compounds, PGE2 and cAMP in 16 serial dilutions in triplicate, using a Biomek station. HEK-EBNA cells expressing a target PG receptor subtype (EP2 or EP4) were suspended in a stimulation buffer (HBSS, 0.1% BSA, 0.5 mM IBMX and 5 mM HEPES, pH 7.4) in a density of 10^4 cells/5 μL. The reaction was initiated by mixing 5 μL drug dilutions with 5 μL of HEK-EBNA cells in a well, carried out for 30 min at room temperature, and followed by the addition of 5 μL anti-cAMP acceptor beads in the control buffer with Tween-20 (25 mM NaCl, 0.03% Tween-20, 5 mM HEPES, pH 7.4). After 30 min in the dark at room temperature, the mixtures were incubated with 15 μL biotinylated-cAMP/strepavidin donor beads in Lysis/Detection buffer (0.1% BSA, 0.3% Tween-20 and 5 mM HEPES, pH 7.4) for 45 min at the room temperature. Fluorescence changes were read using a Fusion-alpha HT microplate reader.

EP2 = EP2 (Homo sapiens, UniProt P43116); assay: Ki competition binding, EP2; set-up: expressed in transfected cells; conditions: [3H]PGE2 competition; NA = no activity
Experimental: (§1) Data from running binding and activity studies on the compounds of the invention were carried out as described in U.S. Pat. No. 7,427,685, the contents of which are incorporated herein by reference.
Competition binding experiments were performed in a medium containing Hank's balanced salt solution, Hepes 20 mM, pH 7.3, membranes (˜60 μg protein) or 2×10^5 cells from HEK 293 cells stably expressing human EP2 receptors, [^3H]PGE2 (10 nM) and various concentrations of test compounds in a total volume of 300 μl. Reaction mixtures were incubated at 23° C. for 60 min, and were filtered over Whatman GF IB filters under vacuum. Filters were washed three times with 5 ml ice-cold buffer containing 50 mM Tris/HCl (PH 7.3). Non-specific binding was estimated in the presence of excess unlabeled PGE2 (10 μM). Binding data fitted to the binding model for a single class of binding sites, using nonlinear regression analysis. IC50 values thus obtained were converted to Ki using the equation of Ki=(IC50/(1+[L]/KD) where [L] represents PGE2 concentration (10 nM) and KD the dissociation constant for [^3H]PGE2 at human EP2 receptors (40 nM).
(§2) Cells Stably Expressing EP1, EP2, EP4, and FP Receptors
(§3) HEK-293 cells stably expressing the human or feline FP receptor, or EP1, EP2, or EP4 receptors were washed with TME buffer, scraped from the bottom of the flasks, and homogenized for 30 sec using a Brinkman PT 10/35 polytron. TME buffer was added to achieve a final 40 ml volume in the centrifuge tubes (the composition of TME is 100 mM TRIS base, 20 mM MgCl2, […]; ION HCl is added to achieve a pH of 7.4).
(§4) The cell homogenate was centrifuged at 19000 rpm for 20 min at 4° C. using a Beckman Ti-60 rotor. The resultant pellet was resuspended in TME buffer to give a final 1 mg/ml protein concentration, as determined by Biorad assay. Radioligand binding competition assays vs. [^3H-]17-phenyl PGF2α (5 nM) were performed in a 100 μl volume for 60 min. Binding reactions were started by adding plasma membrane fraction. The reaction was terminated by the addition of 4 ml ice-cold TRIS-HCl buffer and rapid filtration through glass fiber GF/B filters using a Brandel cell harvester. The filters were washed 3 times with ice-cold buffer and oven dried for one hour.
(§5) [^3H-] PGE2 (specific activity 180 Ci mmol) was used as the radio ligand for EP receptors. [^3H] 17-phenyl PGF2α was employed for FP receptor binding studies. Binding studies employing EP1, EP2, EP4 and FP receptors were performed in duplicate in at least three separate experiments. A 200 μl assay volume was used. Incubations were for 60 min at 25° C. and were terminated by the addition of 4 ml of ice-cold 50 mM TRIS-HCl, followed by rapid filtration through Whatman GF/B filters and three additional 4 ml washes in a cell harvester (Brandel). Competition studies were performed using a final concentration of 5 nM [^3H]-PGE2, or 5 nM [^3H] 17-phenyl PGF2α and non-specific binding determined with 10^−5M of unlabeled PGE2, or 17-phenyl PGF2α, according to receptor subtype studied.

EP4 [2] = molecular target: T1, EP4; assay: Radioligand binding, EP4; set-up: expressed in transfected cells; membrane fraction; conditions: [3H]PGE2 competition
Experimental: as §1, §2, §3, §4, §5

T1 sequence (P35408 whole entry): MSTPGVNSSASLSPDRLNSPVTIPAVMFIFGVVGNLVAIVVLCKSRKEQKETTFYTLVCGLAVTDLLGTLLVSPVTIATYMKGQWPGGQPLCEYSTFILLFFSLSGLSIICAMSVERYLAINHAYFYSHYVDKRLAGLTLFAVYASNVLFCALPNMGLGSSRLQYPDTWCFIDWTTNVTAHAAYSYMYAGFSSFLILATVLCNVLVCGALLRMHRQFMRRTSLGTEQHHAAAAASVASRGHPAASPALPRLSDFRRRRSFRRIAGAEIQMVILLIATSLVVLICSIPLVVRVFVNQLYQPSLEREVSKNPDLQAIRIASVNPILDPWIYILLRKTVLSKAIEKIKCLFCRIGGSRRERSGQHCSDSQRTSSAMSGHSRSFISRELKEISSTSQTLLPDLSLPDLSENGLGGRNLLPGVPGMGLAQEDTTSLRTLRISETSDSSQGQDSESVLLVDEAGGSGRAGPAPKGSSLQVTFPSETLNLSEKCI
EP2, sequence (P43116 whole entry): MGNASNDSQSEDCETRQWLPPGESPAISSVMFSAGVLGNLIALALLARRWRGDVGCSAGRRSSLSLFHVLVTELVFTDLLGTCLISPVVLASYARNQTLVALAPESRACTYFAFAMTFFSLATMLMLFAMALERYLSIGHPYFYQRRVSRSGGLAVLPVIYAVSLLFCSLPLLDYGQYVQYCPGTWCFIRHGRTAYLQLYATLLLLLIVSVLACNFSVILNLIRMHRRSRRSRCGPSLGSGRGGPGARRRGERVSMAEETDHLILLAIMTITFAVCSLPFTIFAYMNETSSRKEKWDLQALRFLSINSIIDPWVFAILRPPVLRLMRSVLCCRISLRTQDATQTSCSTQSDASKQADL

Row | SMILES | EC50 (EP4 [1]) | Ki (EP2) | Ki (EP4 [2]) | EP4 data cAMP EC50 (EP4 [1])
1 | COc1cccc(CC2CCCCC2C(=O)NCc2ccc(C(=O)O)cc2)c1 (single isomer, unassigned) [Example 29, 4-((2-(3-Methoxybenzyl)cyclohexanecarboxamido)methyl)benzoic Acid] | 4 nM | 2570 nM | 19 nM | 
2 | COc1ccc(CC2CCCCC2C(=O)NCc2ccc(C(=O)O)cc2)cc1 (single isomer, unassigned) [Example 34, 4-((2-(4-Methoxybenzyl)cyclohexanecarboxamido)methyl)benzoic Acid] | > 10000 nM | > 10000 nM | 44 nM | 
3 | COc1cccc(CC2=C(C(=O)NCc3ccc(C(=O)O)cc3)CCCC2)c1 [Example 27, 4-((2-(3-Methoxybenzyl)cyclohex-1-enecarboxamido)methyl)benzoic Acid] | > 10000 nM | 138 nM | 2 nM | 
4 | COc1cccc(CC2CCCCC2C(=O)NCc2ccc(C(=O)O)cc2)c1OC (single isomer, unassigned) [Example 16, 4-((2-(2,3-Dimethoxybenzyl)cyclohexanecarboxamido)methyl)benzoic Acid] | > 10000 nM | 4120 nM | 114 nM | 
5 | O=C(NCc1ccc(C(=O)O)cc1)C1=C(Cc2ccccc2Cl)CCCC1 [Example 24, 4-((2-(2-Chlorobenzyl)cyclohex-1-enecarboxamido)methyl)benzoic Acid] | > 10000 nM | 83 nM | 4 nM | 
6 | COc1cccc(CC2CCCCC2C(=O)NCc2ccc(C(=O)O)cc2)c1 (single isomer, unassigned) [Example 28, 4-((2-(3-Methoxybenzyl)cyclohexanecarboxamido)methyl)benzoic Acid] | > 10000 nM | 2350 nM | 4 nM | 
7 | COc1ccc(CC2=C(C(=O)NCc3ccc(C(=O)O)cc3)CCCC2)cc1 [Example 33, 4-((2-(4-Methoxybenzyl)cyclohex-1-enecarboxamido)methyl)benzoic Acid] | > 10000 nM | 1140 nM | 1 nM | 
8 | COc1ccccc1CC1CCCCC1C(=O)NCc1ccc(C(=O)O)cc1 (single isomer, unassigned) [Example 32, 4-((2-(2-Methoxybenzyl)cyclohexanecarboxamido)methyl)benzoic Acid] | > 10000 nM | 1320 nM | 7 nM | 
9 | COc1ccc(OC)c(CC2=C(C(=O)NCc3ccc(C(=O)O)cc3)CCCC2)c1 [Example 17, 4-((2-(2,5-Dimethoxybenzyl)cyclohex-1-enecarboxamido)methyl)benzoic Acid] | > 10000 nM | 403 nM | 8 nM | 
10 | COc1cccc(CC2CCCCC2C(=O)NCc2ccc(C(=O)O)cc2)c1OC (single isomer, unassigned) [Example 15, 4-((2-(2,3-Dimethoxybenzyl)cyclohexanecarboxamido)methyl)benzoic Acid] | > 10000 nM | 7480 nM | 17 nM | 
11 | COc1ccc(CC2=C(C(=O)NCc3ccc(C(=O)O)cc3)CCCC2)cc1OC [Example 21, 4-((2-(3,4-Dimethoxybenzyl)cyclohex-1-enecarboxamido)methyl)benzoic Acid] | > 10000 nM |  | 4 nM | 
12 | COc1ccc(CC2CCCCC2C(=O)NCc2ccc(C(=O)O)cc2)cc1 (single isomer, unassigned) [Example 35, 4-((2-(4-Methoxybenzyl)cyclohexanecarboxamido)methyl)benzoic Acid] | > 10000 nM | > 10000 nM | 86 nM | 
13 | COc1cccc(CC2=C(C(=O)NCc3ccc(C(=O)O)cc3)CCCC2)c1OC [Example 14, 4-((2-(2,3-Dimethoxybenzyl)cyclohex-1-enecarboxamido)methyl)benzoic Acid] | > 10000 nM | 1190 nM | 45 nM | 
14 | CN(Cc1ccc(C(=O)O)cc1)C(=O)C1=C(Cc2cccc(C(F)(F)F)c2)CCC1 [Example 7, 4-((N-Methyl-2-(3-(trifluoromethyl)benzyl)cyclopent-1-enecarboxamido)methyl)benzoic Acid] |  |  | 1570 nM | 

The remaining lines, values ahead:

Row | EC50 (EP4 [1]) | Ki (EP2) | Ki (EP4 [2]) | EP4 data cAMP EC50 (EP4 [1]) | SMILES
15 | > 10000 nM | 462 nM | 16 nM |  | COc1ccc(OC)c(CC2CCCCC2C(=O)NCc2ccc(C(=O)O)cc2)c1 (single isomer, unassigned) [Example 18, 4-((2-(2,5-Dimethoxybenzyl)cyclohexanecarboxamido)methyl)benzoic Acid]
16 | > 10000 nM |  | 77 nM |  | COc1cc(CC2C3CCC(C3)C2C(=O)NCc2ccc(C(=O)O)cc2)cc(OC)c1 (racemic) [Example 39, 4-((3-(3,5-Dimethoxybenzyl)bicyclo[2.2.1]heptane-2-carboxamido)methyl)benzoic Acid]
17 | 9 nM | > 10000 nM | 84 nM |  | COc1cc(CC2CCCC2C(=O)NCc2ccc(C(=O)O)cc2)cc(OC)c1 (single isomer, unassigned) [Example 2, 4-((2-(3,5-Dimethoxybenzyl)cyclopentanecarboxamido)methyl)benzoic Acid]
18 |  |  | 1010 nM |  | COc1cc(CC2=C(C(=O)NCc3ccc(C(=O)O)cc3)C3CCC2C3)cc(OC)c1 (centres unmarked) [Example 36, 4-((3-(3,5-Dimethoxybenzyl)bicyclo[2.2.1]hept-2-ene-2-carboxamido)methyl)benzoic Acid]
19 |  | 6190 nM | 30 nM | weak | COc1cc(CC2CCCC2C(=O)NCc2ccc(C(=O)O)cc2)cc(OC)c1 (single isomer, unassigned) [Example 1, 4-((2-(3,5-Dimethoxybenzyl)cyclopentanecarboxamido)methyl)benzoic Acid]
20 | 0.2 nM | 393 nM | 2 nM |  | COc1ccc(OC)c(CC2CCCCC2C(=O)NCc2ccc(C(=O)O)cc2)c1 (single isomer, unassigned) [Example 19, 4-((2-(2,5-Dimethoxybenzyl)cyclohexanecarboxamido)methyl)benzoic Acid]
21 | > 10000 nM |  | 4 nM |  | COc1ccc(CC2CCCCC2C(=O)NCc2ccc(C(=O)O)cc2)cc1OC (single isomer, unassigned) [Example 22, 4-((2-(3,4-Dimethoxybenzyl)cyclohexanecarboxamido)methyl)benzoic Acid]
22 | > 10000 nM |  | 323 nM |  | COc1cc(/C=C2\[C@@H]3CC[C@@H](C3)[C@H]2C(=O)NCc2ccc(C(=O)O)cc2)cc(OC)c1 (racemic) [Example 37, 4-(((1S,2R,4R,E)-3-(3,5-Dimethoxybenzylidene)bicyclo[2.2.1]heptane-2-carboxamido)methyl)benzoic Acid]
23 | > 10000 nM |  | 8 nM |  | COc1ccc(CC2CCCCC2C(=O)NCc2ccc(C(=O)O)cc2)cc1OC (single isomer, unassigned) [Example 23, 4-((2-(3,4-Dimethoxybenzyl)cyclohexanecarboxamido)methyl)benzoic Acid]
24 | > 10000 nM |  | 402 nM |  | COc1cc(CC2C3CCC(C3)C2C(=O)NCc2ccc(C(=O)O)cc2)cc(OC)c1 (centres unmarked) [Example 38, 4-((3-(3,5-Dimethoxybenzyl)bicyclo[2.2.1]heptane-2-carboxamido)methyl)benzoic Acid]
